Test results taken from publication PMC12756723, “Derivatives of the Cashew Nut Shell Liquid as Ligands of Pseudomonas aeruginosa Phenazine Protein D (PaPhzD)” (ACS Omega, 2025).
Entries after “also recorded” stand apart in the source; their conditions may differ.

What was measured:
[1] = system: P. aeruginosa; experiment: Colony morphology in medium containing compounds; type: cell-based, Pseudomonas aeruginosa; details: data not shown
[2] = system: P. aeruginosa cells (ATCC 27853); experiment: Screening of PYO production inhibitors (supernatant absorbance 691 nm); type: cell-based, Pseudomonas aeruginosa; details: 100 μM
Description: P. aeruginosa cells (ATCC 27853) were inoculated by depletion on King’s A agar, and the plates were incubated at 30 °C for 24 h. Isolated colonies were collected and resuspended in sterile saline solution (0.85%) until turbidity equivalent to optical density (OD) at 600 nm, equal to 0.3 (1.5 × 10^8 CFU/mL). This bacterial suspension was diluted 10-fold and used to inoculate King’s A broth.
(§1) The potential inhibitors, previously solubilized in DMSO, were added to the culture medium after the inoculation (final concentration = 100 μM). The control group was cultured in the presence of an equivalent volume of DMSO but without the presence of potential inhibitors. The cell suspension was maintained at 30 °C under constant agitation (180 rpm) for 24 h in a 24-well plate. After this period, the OD600 was measured to evaluate bacterial growth, and in parallel, after being subjected to centrifugation, the supernatant was read in a 96-well plate at a wavelength of 691 nm. The sterile medium used for culturing the microorganism was used as a positive control, and culture medium containing 1% DMSO was used as a negative control.

[3] = system: P. aeruginosa cells (ATCC 27853); experiment: Bacterial growth (OD600) in the PYO screening culture; type: cell-based, Pseudomonas aeruginosa; details: 100 μM
Description: as §1

[4] = system: P. aeruginosa PA14; experiment: Swarming assay; type: cell-based, Pseudomonas aeruginosa; details: 100 μM
Description: Swarming assays were performed as described, using 6-well plates. Briefly, 3 μL of culture (OD600 = 3.0) was inoculated in the center of modified M9 (20 mM NH4Cl; 12 mM Na2HPO4; 22 mM KH2PO4; 8.6 mM NaCl; 1 mM MgSO4; 1 mM CaCl2 2 H2O; 11 mM glucose; 0.5% casamino acids (Difco)) with 0.5% of Bacto-agar (Difco), containing the respective compounds (100 μM final concentration, diluted in DMSO). Plates were incubated inside plastic bags to avoid evaporation at 30 °C for 16 h. After this period, pictures were taken, and the area covered by the colonies was measured using ImageJ. All assays were performed with four replicates, and 0.1% DMSO (v/v) was employed as a negative control.

[5] = system: P. aeruginosa PA14; experiment: Biofilm assay (crystal violet); type: cell-based, Pseudomonas aeruginosa; details: 100 μM, vs DMSO control
Description: Exponential phase cultures of P. aeruginosa PA14 were diluted to 5 × 10^5 colony forming units (CFU) in 48-well plates with LB containing each compound (1, 3, and 5) at 100 μM final concentrations or 0.1% DMSO (v/v) as a negative control. The plate was incubated steadily at 30 °C for 20 h inside a plastic bag to avoid evaporation. After the incubation, the OD600 of each well was measured in a plate reader (SpectraMax Paradigm). The planktonic bacteria were removed by turning the plate over the waste, followed by three steps of washing with distilled water. After drying, a solution of 1% crystal violet was added to each well and incubated at room temperature for 30 min to stain the attached cells forming a ring at the air–liquid interface. The crystal violet solution was removed, and the plate was washed using the same procedure. The dye was solubilized with 30% acetic acid for 30 min at room temperature. The Abs550 was measured, and the value was divided by the OD600 for each well. A total of 24 replicates were made for each treatment (6 wells per plate, four plates)

[6] = system: KinA/SPOOF; design: method as in Kanojia et al.; details: KinA/SPOOF from B. subtilis; ref Kanojia et al.; cited from earlier work
[7] = system: human PPAR isoforms; design: method as in Sahin et al. 2022 (likely, number not given); details: previously investigated; ref Sahin et al. 2022 (likely, number not given); cited from earlier work
[8] = system: phzA1-G1; experiment: lacZ transcriptional fusion, phzA1-G1 operon; type: cell-based, Pseudomonas aeruginosa; details: late exponential phase
Description: (§2) P. aeruginosa harbors two identically structured operons in its genome, which encode most of the enzymes responsible for PYO synthesis (phzA1-G1 and phzA2-G2) but have slightly different regulatory regions 1. lacZ transcriptional fusions for each operon were assayed at mid-log and late exponential phases (OD=1 and 3, respectively). At mid-log cultures, the expression of both QS-regulated operons is extremely low, and it increases more than 1000-fold at late exponential phase for phzA1-G1 and 4-fold for phzA2-G2, as expected. Addition of compounds 2 and 4 had no effect for both operons in the late […]
(§3) synthesis is not related to inhibition at the transcriptional level.
(§4) Figure 7S: Effect of LDT10 (2) and LDT13 (3) on the phzA1-G1 (A) and phzA2-G2 […]
(§5) (1 picture or pasted object on this page, not shown here)

[9] = system: phzA2-G2; experiment: lacZ transcriptional fusion, phzA2-G2 operon; type: cell-based, Pseudomonas aeruginosa; details: late exponential phase
Description: as §2, §3, §4, §5

[10] = biological target: T1, PaPhzD-FITC (Pseudomonas aeruginosa, UniProt P0DPB9); experiment: Fluorescence binding assay with FITC-labeled PaPhzD; details: 0.32 μM FITC-labeled PaPhzD, 25 °C, 3-parameter fit; read-out: Kd
T1 construct: inferred from Ni-NTA purification with imidazole elution; made in house; host or cells: E. coli BL21(DE3)
T1 sequence (P0DPB9 whole entry): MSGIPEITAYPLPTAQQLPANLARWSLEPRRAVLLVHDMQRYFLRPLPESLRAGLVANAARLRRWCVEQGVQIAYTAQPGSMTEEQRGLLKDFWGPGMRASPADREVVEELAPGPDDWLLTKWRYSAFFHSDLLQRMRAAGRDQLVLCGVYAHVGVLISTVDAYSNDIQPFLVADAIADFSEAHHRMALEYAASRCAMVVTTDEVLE
Description: PaPhzD (2.1 mg/mL) was incubated with 6 mg/mL fluorescein isothiocyanate (FITC) (Sigma-Aldrich 46950) (1:1) for 2 h at 25 °C. Next, the reaction mixture was eluted on a Hi-Trap HP desalting column (GE Healthcare) with 2 CV of 50 mM HEPES buffer (pH 8.0). The collected fractions were quantified at two different wavelengths (280 and 495 nm), and the molar ratio (Abs495/Abs280) ranging from 0.3 to 1.0 was employed for K d calculation experiments.
Subsequently, the fluorescence intensity of 0.32 μM of FITC-labeled PaPhzD was measured on a real-time thermocycler (Applied Biosystems 7500) equipped with the filter FAN (excitation wavelength: 498 nm; emission wavelength: 530 nm) for 10 min in the presence of different concentrations of each LDT compound (ranging 0.7–100 μM), previously diluted in DMSO.
The fluorescence raw data were recorded using Applied Biosystems 7500 Software v2.0, then exported to GraphPad Prism version 9.0 software to build fluorescence intensity × concentration plots and calculate K d values of the ligands by the nonlinear regression method (3-parameter fit). All experiments were carried out in triplicate using a 96-well PCR plate, manually sealed with transparent capping strips (Flatcap strips, BioRadVR).

## CCCCCCCCCCCCCCCc1cccc(O)c1 [Compound 2]
[1]
  Effect on colony morphology: No effects on colony morphology
[2]; 24 h, 30 °C
  Pyocyanin production, Cohen's d vs control: −2.56
[2]; vs DMSO control
  Effect on pyocyanin production: decreased pyocyanin production
[3]
  Effect on bacterial growth: without affecting bacterial growth; also recorded: no significant effect on bacterial growth
[4]
  Swarming motility, % compared to control conditions: 65%
  Swarming motility, Cohen's d vs control: −0.91
[5]
  Effect on biofilm formation: without affecting bacterial growth or biofilm formation; also recorded: not significantly different the control
[6]
  IC50: > 500000 nM
[7]
  PPAR activity profile: do not activate PPAR receptors
[8]
  Effect on phzA1-G1 transcription: no effect
[9]
  Effect on phzA2-G2 transcription: no effect
[10]
  Kd: 2800 nM
